Values quoted from earlier work, collected in US20150174235A1, “VACCINE” (Bionor Immuno AS, priority 2012, published 2015).

System: HIV-specific T-cells
Details: for IL-2 production by CD8 T-cells / lytic capacity of polyfunctional HIV specific CD8+ T cells / number of polyfunctional CD4+ T-cells / proliferation of CD4+ T cells / Gag antigen epitopes recognized: IMiD present during in vitro T-cell stimulation; for Gag antigen epitopes recognized: also at lower antigen peptide concentrations; for IFN-γ production by CD8+ T-cells and CD4 T-cells: after antigen stimulation, IMiD present

| Structure (SMILES) | IL-2 production by CD8 T-cells | lytic capacity of polyfunctional HIV specific CD8+ T cells | number of polyfunctional CD4+ T-cells | proliferation of CD4+ T cells | Gag antigen epitopes recognized | IFN-γ production by CD8+ T-cells and CD4 T-cells |
| --- | --- | --- | --- | --- | --- | --- |
| Nc1cccc2c1CN(C1CCC(=O)NC1=O)C2=O (stereo not drawn) [Lenalidomide] | increased | enhanced | increased | reduced | more | detectable |
| Nc1cccc2c1C(=O)N(C1CCC(=O)NC1=O)C2=O (stereo not drawn) [pomalidomide] | increased | enhanced | increased | reduced | more | detectable |
